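Tested at 5 concentrations; 48 h exposure; 96-well plates; endpoints linearly interpolated, else capped at highest concentration. At the GI50, growth is halved.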 Activity calls are given as the source filed them. Rule as the data show it: active = GI50 up to about 1.1 µM and inactive = higher.
Experiments:
Assay in all cases: inhibition of tumour cell growth, NCI panel, 48 h
BT-549 = tested on: BT-549
MDA-MB-231 = tested on: MDA-MB-231
DMS-273 = tested on: DMS-273
LXFL 529 = tested on: LXFL 529
DLD-1 = tested on: DLD-1
HOP-18 = tested on: HOP-18

| SMILES | GI50 (BT-549) | GI50 (MDA-MB-231) | further results |
| --- | --- | --- | --- |
| CC(C)(C)c1ccc(O)c(CN(Cc2c(O)ccc3ccccc23)C2CCCCC2)c1 | 19.6 µM (inactive) | 16.8 µM (inactive) |  |
| C=C1[C@H](OC(=O)C(C)C)[C@]23CC4(O)[C@@H]5[C@@]6(C)CCC[C@]57C([C@@H]2C[C@@]1(O)[C@H](O)[C@@H]73)N4C6 | > 100 µM (inactive) | > 100 µM (inactive) |  |
| CCOC(=O)C(NC(=O)OC(C)(C)C)C(=O)OCC | > 100 µM (inactive) |  |  |
| CN(C)Cc1cc(/N=N/c2ccccc2Cl)cc(CN(C)C)c1O | 53.1 µM (inactive) | 98.4 µM (inactive) |  |
| O=C(CC(O)(C(F)(F)F)C(F)(F)F)C(c1ccccc1)C(O)(C(F)(F)F)C(F)(F)F (centres undefined) | 24 µM (inactive) | > 100 µM (inactive) |  |
| N#CCCN(CCC#N)c1ccc(C(=N/c2ccc(Cl)cc2)/N=N/c2ccccc2)cc1 | 17.5 µM (inactive) | > 100 µM (inactive) |  |
| CCc1cc(Cc2cc(CC)c(NC(=O)C(=O)CC(=O)c3sc(-c4cccnc4)nc3C)c(CC)c2)cc(CC)c1NC(=O)C(=O)CC(=O)c1sc(-c2cccnc2)nc1C | > 100 µM (inactive) | > 100 µM (inactive) |  |
| Cc1cc(Cl)ccc1Nc1sc(C(=O)c2cc3cc(Cl)ccc3o2)c(N)c1C#N | > 51.9 µM (inactive) | 4.99 µM (inactive) |  |
| CCOC(=O)c1c(N2CCCC2)[nH]c(=O)c(C(c2c(O)c(C(=O)OCC)c(N3CCCC3)[nH]c2=O)C(C)C)c1O | 32.4 µM (inactive) | 21.7 µM (inactive) |  |
| COC(=O)c1ccccc1C1CN=NC12Cc1ccc(C)cc1C2=O (centres undefined) | 47.9 µM (inactive) | > 100 µM (inactive) |  |
| CN(C)CCNC(=O)c1ccc2ccc3cccnc3c2n1 |  |  | GI50 (DMS-273): 6.89 µM (inactive); GI50 (LXFL 529): 11.8 µM (inactive); GI50 (DLD-1): 6.55 µM (inactive); GI50 (HOP-18): 26.2 µM (inactive) |
| Nc1nc(Cl)c(N)c(NCC2(CO)CCCC2)n1 | 50.5 µM (inactive) | > 100 µM (inactive) |  |
| O=C(/C=C/c1ccc(O)c(O)c1)OCCOC(=O)/C=C/c1ccc(O)c(O)c1 | 34.4 µM (inactive) | 38 µM (inactive) |  |
| C=CCn1c(=O)ccn(/C(=C/C(=O)OCC)C(=O)OCC)c1=O | 15.7 µM (inactive) | 9.82 µM (inactive) |  |
| O=S(=O)(c1ccccc1)n1c2ccc(Br)cc2c2nc3ccccc3nc21 |  | > 100 µM (inactive) |  |
| N#CC1=C(N2CCCC2)NC(=O)CC1=O |  | > 100 µM (inactive) |  |
| Cc1cn(CCCCC2=NCCCN2)c(=O)[nH]c1=O |  | > 29.4 µM (inactive) |  |
| N#CC(c1ccc(O)cc1)N1CCN(C(C#N)c2ccc(O)cc2)CC1 (centres undefined) | > 72.3 µM (inactive) | 21.9 µM (inactive) |  |
| Cc1ccc(S(=O)(=O)NN=C2C(C)(C)CC2(C)C)cc1 |  | > 100 µM (inactive) |  |
| COc1ccc(N/N=C2\CCOc3ccc(C)cc3C2=O)cc1 | 24.1 µM (inactive) | 14.4 µM (inactive) |  |
| CC1=C(C)CC2C(=O)N(c3cc(C(C)(C)C)ccc3C(C)(C)C)C(=O)C2C1 (centres undefined) | 24.7 µM (inactive) | > 100 µM (inactive) |  |
| CCOC(=O)Nn1c(CC#N)nnc1Cc1ccccc1 | > 100 µM (inactive) | > 100 µM (inactive) |  |
| O=C1CC2(CCNCC2)C(=O)N1N1CCOCC1 | > 100 µM (inactive) | > 100 µM (inactive) |  |
| CCN(CC)CC[n+]1ccc2c(C)c3[nH]c4ccccc4c3c(C)c2c1 | 1.3 µM (inactive) | 0.65 µM (active) | GI50 (DMS-273): 0.338 µM (active); GI50 (DLD-1): 1.87 µM (inactive) |
| CC(C)[C@H]1NC(=O)[C@H]2N=C(S[C@H]2C)[C@@H]2CCCN2C(=O)[C@H](Cc2ccccc2)NC(=O)[C@@H]2CSC(=N2)[C@@H](Cc2ccccc2)NC(=O)[C@@H]2CSC1=N2 | > 50 µM (inactive) | > 50 µM (inactive) |  |

— ChEMBL document CHEMBL1201862, “PubChem BioAssay data set” (2004)
